The record followed here is ChEMBL document CHEMBL4715830, “Design, synthesis and biological evaluation of suramin-derived dual antagonists of the proinflammatory G protein-coupled receptors P2Y and GPR17” (Eur J Med Chem, 2020).

One may read the inhibition as the drop in the measured response relative to a control, in per cent. The IC50 is the concentration at which inhibition is half-maximal.

Data set [1] concerns the target P2Y purinoceptor 1 (Homo sapiens) (UniProt P47900). The data set can be described thus: Antagonist activity at human P2Y1 receptor expressed in human 1321N1 cells assessed as inhibition of ADP-induced intracellular calcium influx at 10 uM preincubated for 20 mins followed by ADP addition measured at 0.4 secs interval for 60 times by Oregon Green BAPTA-1/AM dye-based fluorescence assay. In kind it is functional, cell-based. (In general: Calcium flux is commonly read through the fluorescence of an indicator in the cells.)

Data set [2] addresses P2Y purinoceptor 4 (Homo sapiens) (UniProt P51582). The data set can be described thus: Antagonist activity at human P2Y4 receptor expressed in human 1321N1 cells assessed as inhibition of UTP-induced intracellular calcium influx at 10 to 100 uM preincubated for 20 mins followed by UTP addition measured at 0.4 secs interval for 60 times by Oregon Green BAPTA-1/AM dye-based fluorescence assay. The format is functional, cell-based. The conditions noted are these: dose 10-100 µM.

Data set [3] concerns the target P2Y purinoceptor 12 (Homo sapiens) (UniProt Q9H244). Kind of data set: Antagonist activity at recombinant human Gi/Go-coupled GP2Y12 receptor expressed in CHOK1 cells assessed as inhibition of 2-(Methylthio)ADP-induced inhibition of beta-arrestin recruitment at 10 uM by pathhunter assay. In kind it is cell-based. The conditions noted are these: CHO-K1. (In general: Arrestin recruitment assays detect the binding of arrestin to an activated receptor.)

A further data set deals with P2Y purinoceptor 6 (Rattus norvegicus, UniProt Q63371). The data set can be described thus: Antagonist activity at rat P2Y6 receptor expressed in human 1321N1 cells assessed as inhibition of UDP-induced intracellular calcium influx preincubated for 20 mins followed by UDP addition measured at 0.4 secs interval for 60 times by Oregon Green BAPTA-1/AM dye-based fluorescence assay. In kind it is functional, cell-based.

Data set [4] addresses T1, P2Y purinoceptor 14 (Homo sapiens) (UniProt Q15391).
T1 sequence (whole entry): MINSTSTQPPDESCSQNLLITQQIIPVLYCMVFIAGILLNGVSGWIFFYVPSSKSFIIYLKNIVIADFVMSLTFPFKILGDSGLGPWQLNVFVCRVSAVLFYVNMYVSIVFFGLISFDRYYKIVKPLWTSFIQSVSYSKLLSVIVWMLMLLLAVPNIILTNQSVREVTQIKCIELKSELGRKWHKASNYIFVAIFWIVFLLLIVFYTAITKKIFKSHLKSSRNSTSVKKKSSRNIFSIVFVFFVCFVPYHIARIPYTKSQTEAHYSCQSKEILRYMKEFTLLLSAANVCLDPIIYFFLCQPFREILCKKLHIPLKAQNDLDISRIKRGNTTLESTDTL
The data set can be described thus: Antagonist activity at recombinant human Gi/Go-coupled GP2Y14 receptor expressed in CHOK1 cells assessed as inhibition of […]-induced inhibition of beta-arrestin recruitment at 10 uM by pathhunter assay. The format is cell-based.

Data set [5] deals with P2Y purinoceptor 6 (Rattus norvegicus) (UniProt Q63371). The data set can be described thus: Antagonist activity at rat P2Y6 receptor expressed in human 1321N1 cells assessed as inhibition of UDP-induced intracellular calcium influx at 10 to 100 uM preincubated for 20 mins followed by UDP addition measured at 0.4 secs interval for 60 times by Oregon Green BAPTA-1/AM dye-based fluorescence assay. In kind it is functional, cell-based. The conditions noted are these: dose 10-100 µM.

The nature of data set [6]: Chemical stability of compound in pH 7 MeOH/water solution measured after 24 hrs by HPLC-MS analysis. The format is physicochemical. The conditions noted are these: buffer, pH 7, 24 h.
A short description of data set [7]: Chemical stability of compound in pH 3 MeOH/water solution measured after 24 hrs by HPLC-MS analysis. In kind it is physicochemical. Conditions: buffer, pH 3, 24 h.
The nature of data set [8]: Chemical stability of compound in pH 7 MeOH/water solution at 70 degC measured after 24 hrs by HPLC-MS analysis. In kind it is physicochemical. Conditions: buffer, pH 7, 24 h.
Data set [9] can be described thus: Drug metabolism in pH 9 MeOH/water solution assessed as methyl 4-(2-chlorobenzamido)benzenesulfonate formation measured after 24 hrs by HPLC-MS analysis.
For data set [10], the target named is T2, Uracil nucleotide/cysteinyl leukotriene receptor (Homo sapiens, UniProt Q13304). Kind of data set: Antagonist activity at human GPR17 expressed in human 1321N1 cells assessed as inhibition of ATP-induced intracellular calcium influx at 10 uM preincubated for 20 mins followed by ATP addition measured at 0.4 secs interval for 60 times by Oregon Green BAPTA-1/AM dye-based fluorescence assay relative to control. In kind it is functional, cell-based.

For data set [11], the target named is T2, Uracil nucleotide/cysteinyl leukotriene receptor. The data set can be described thus: Antagonist activity at human GPR17 expressed in human 1321N1 cells assessed as inhibition of ATP-induced intracellular calcium influx preincubated for 20 mins followed by ATP addition measured at 0.4 secs interval for 60 times by Oregon Green BAPTA-1/AM dye-based fluorescence assay. In kind it is functional, cell-based.

Another data set concerns the target P2Y purinoceptor 2 (Homo sapiens, UniProt P41231). The data set can be described thus: Antagonist activity at human P2Y2 receptor expressed in human 1321N1 cells assessed as inhibition of ATP-induced intracellular calcium influx preincubated for 20 mins followed by ATP addition measured at 0.4 secs interval for 60 times by Oregon Green BAPTA-1/AM dye-based fluorescence assay. The format is functional, cell-based.

The source made the active and inactive calls. The rule behind the calls is not given here.

Chain of P2Y purinoceptor 6 (Rattus norvegicus) (Q63371 whole entry): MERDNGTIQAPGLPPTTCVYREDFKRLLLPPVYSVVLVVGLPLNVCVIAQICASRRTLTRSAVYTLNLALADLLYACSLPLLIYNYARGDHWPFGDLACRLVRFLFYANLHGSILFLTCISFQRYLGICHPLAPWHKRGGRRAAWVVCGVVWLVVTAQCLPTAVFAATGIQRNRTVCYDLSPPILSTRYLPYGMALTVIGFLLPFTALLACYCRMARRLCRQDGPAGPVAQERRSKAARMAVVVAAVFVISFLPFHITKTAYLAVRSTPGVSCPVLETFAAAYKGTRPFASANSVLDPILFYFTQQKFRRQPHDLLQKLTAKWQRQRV
Chain of P2Y purinoceptor 1 (Homo sapiens) (P47900 whole entry): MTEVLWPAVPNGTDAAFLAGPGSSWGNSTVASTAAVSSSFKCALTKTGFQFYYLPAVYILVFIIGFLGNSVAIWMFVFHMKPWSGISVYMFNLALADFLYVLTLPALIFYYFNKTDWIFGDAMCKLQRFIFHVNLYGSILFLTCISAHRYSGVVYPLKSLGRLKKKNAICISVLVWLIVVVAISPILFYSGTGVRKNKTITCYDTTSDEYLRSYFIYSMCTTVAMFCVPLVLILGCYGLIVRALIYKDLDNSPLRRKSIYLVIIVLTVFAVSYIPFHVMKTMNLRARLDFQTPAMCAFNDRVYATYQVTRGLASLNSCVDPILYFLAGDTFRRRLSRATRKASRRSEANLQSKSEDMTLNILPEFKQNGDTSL
Chain of P2Y purinoceptor 4 (Homo sapiens) (P51582 whole entry): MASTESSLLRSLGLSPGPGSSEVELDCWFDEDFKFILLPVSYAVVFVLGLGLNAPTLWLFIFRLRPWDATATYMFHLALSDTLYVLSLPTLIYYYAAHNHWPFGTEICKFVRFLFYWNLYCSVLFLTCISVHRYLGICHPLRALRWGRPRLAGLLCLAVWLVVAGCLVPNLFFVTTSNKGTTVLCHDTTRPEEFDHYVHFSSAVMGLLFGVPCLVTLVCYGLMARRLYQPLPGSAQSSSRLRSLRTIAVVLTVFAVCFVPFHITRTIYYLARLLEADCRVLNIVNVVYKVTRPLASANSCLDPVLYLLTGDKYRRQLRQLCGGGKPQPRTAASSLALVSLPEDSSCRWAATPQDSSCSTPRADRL
Chain of P2Y purinoceptor 12 (Homo sapiens) (Q9H244 whole entry): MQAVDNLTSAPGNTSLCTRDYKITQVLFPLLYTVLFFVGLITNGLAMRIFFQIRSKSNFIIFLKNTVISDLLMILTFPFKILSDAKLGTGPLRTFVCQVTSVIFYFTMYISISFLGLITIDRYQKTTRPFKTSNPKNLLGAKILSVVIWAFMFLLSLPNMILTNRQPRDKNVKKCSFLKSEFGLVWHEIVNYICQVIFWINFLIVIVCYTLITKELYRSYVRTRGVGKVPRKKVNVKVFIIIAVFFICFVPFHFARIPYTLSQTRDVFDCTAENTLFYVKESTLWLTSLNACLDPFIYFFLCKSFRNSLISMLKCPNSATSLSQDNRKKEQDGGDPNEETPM
T2 sequence (Q13304 whole entry): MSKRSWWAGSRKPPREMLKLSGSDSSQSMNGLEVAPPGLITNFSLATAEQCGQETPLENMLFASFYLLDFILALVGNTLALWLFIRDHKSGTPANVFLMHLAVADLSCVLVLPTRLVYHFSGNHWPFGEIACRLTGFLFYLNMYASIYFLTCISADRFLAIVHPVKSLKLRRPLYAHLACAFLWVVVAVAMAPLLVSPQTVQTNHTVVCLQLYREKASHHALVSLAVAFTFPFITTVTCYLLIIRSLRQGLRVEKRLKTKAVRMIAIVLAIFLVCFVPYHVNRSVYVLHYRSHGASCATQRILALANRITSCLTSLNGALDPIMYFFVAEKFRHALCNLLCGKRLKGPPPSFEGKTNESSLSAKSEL
Chain of P2Y purinoceptor 6 (Q63371 whole entry): as the sequence (Q63371 whole entry) above
Chain of P2Y purinoceptor 2 (P41231 whole entry): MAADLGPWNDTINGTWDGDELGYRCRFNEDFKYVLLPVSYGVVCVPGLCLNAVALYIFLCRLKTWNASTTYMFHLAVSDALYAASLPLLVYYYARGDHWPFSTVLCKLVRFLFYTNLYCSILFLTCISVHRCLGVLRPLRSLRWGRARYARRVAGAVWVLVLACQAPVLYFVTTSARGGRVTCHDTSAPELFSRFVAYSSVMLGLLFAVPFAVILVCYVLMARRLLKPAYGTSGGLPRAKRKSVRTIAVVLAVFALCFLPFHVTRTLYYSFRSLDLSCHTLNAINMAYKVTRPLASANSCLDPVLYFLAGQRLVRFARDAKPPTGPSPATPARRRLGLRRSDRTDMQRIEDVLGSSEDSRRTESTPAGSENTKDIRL

Turning to `Cc1cccc(C(=O)Nc2ccc(S(=O)(=O)Oc3cccc([N+](=O)[O-])c3)cc2)c1`, the inhibition result in data set [1], in data set [2], in [3] and in [4] was “inactive” throughout. Moreover, the half-maximal inhibitory concentration (IC50) at P2Y purinoceptor 6 stood at 6.19 µM.

In the case of `O=C(Nc1ccc(S(=O)(=O)Oc2cccc([N+](=O)[O-])c2)cc1)c1ccccc1Cl`, the inhibition entry in [5], in data set [1], in data set [2], in data set [3] and in data set [4] was “inactive” throughout. The Stabilty result in [6], in data set [7] and in [8] was “Stable” in each case. The Drug metabolism in data set [9] is 1.4%.

With `Cc1ccc(C(=O)Nc2ccc(S(=O)(=O)O)c3cc(S(=O)(=O)O)cc(S(=O)(=O)O)c23)cc1NC(=O)c1cccc(NC(=O)Nc2cccc(C(=O)Nc3cc(C(=O)Nc4ccc(S(=O)(=O)O)c5cc(S(=O)(=O)O)cc(S(=O)(=O)O)c45)ccc3C)c2)c1` [SURAMIN HEXASODIUM], the inhibition in data set [10] came out at 33%. Besides, the IC50 (in data set [11]; on P2Y purinoceptor 2) was greater than 100 µM each time.

In the case of `Cc1cccc(NC(=O)c2ccc(NC(=O)c3cccc([N+](=O)[O-])c3)cc2)c1`, the inhibition entry in [5], in [1], in [2], in [3] and in data set [4] was “inactive” throughout.

As to `Cc1cccc(C(=O)Nc2cccc(NC(=O)c3ccc([N+](=O)[O-])cc3)c2)c1`, the inhibition result in [5], in data set [1], in data set [2], in data set [3] and in data set [4] was “inactive” each time.

`O=C(Nc1ccc(S(=O)(=O)Oc2cccc([N+](=O)[O-])c2)cc1)c1cccc(Br)c1`: the inhibition result in [5], in data set [1], in [2], in data set [3] and in data set [4] was “inactive” throughout.

On to `O=C(Nc1ccc(S(=O)(=O)Oc2cccc([N+](=O)[O-])c2)cc1)c1cccc(Cl)c1`, for which the inhibition result in data set [5], in data set [1], in data set [2], in data set [3] and in [4] was “inactive” throughout.

Regarding `O=C(Nc1ccc(S(=O)(=O)Oc2cccc([N+](=O)[O-])c2)cc1)c1ccccc1`, the inhibition result in data set [5], in [1], in data set [2], in data set [3] and in [4] was “inactive” in each case.

As to `O=C(Nc1cccc(S(=O)(=O)Oc2cccc([N+](=O)[O-])c2)c1)c1cccc(Cl)c1`, the inhibition result in data set [5], in data set [1], in data set [2], in [3] and in [4] was “inactive” each time.

`Cc1cccc(C(=O)Nc2cccc(NC(=O)Nc3cccc(C(=O)O)c3)c2)c1`: the inhibition result in [5], in [1], in data set [2], in data set [3] and in [4] was “inactive” each time.
